Data: patent publication US7608407B2, “Fluorescence polarization assay for determining histidine decarboxylase activity” (Boehringer Ingelheim Pharmaceuticals, Inc., priority 2004, dated 2009)

Columns and labels:
[1] = target: anti-histamine antibody D22.12; experiment: Displacement of FITC-histamine binding to the anti-histamine antibody by competitor ligand; design: species or system mice
Description: Triplicate determinations in a 96-well plate were performed as described in the Methods, with 6 nM FITC-histamine, 50 nM anti-histamine antibody, and the indicated concentration of competitor ligand.
(§1) In the standard assay, HDC, diluted to 90 nM in HDC Buffer plus 0.9 mM DTT and 99 μM PLP, was added to a black opaque 384-well plate in 20 μL. Test compound in HDC Buffer plus 6% DMSO or buffer alone was added to the plate in 10 μL. 36 nM FITC-histidine and 3.6 mM histidine were combined in FP Buffer and transferred to the plate in 10 μL. Finally, 90 nM […] antibody was added in 20 μL of FP Buffer. Thus, the final concentrations in the assay were: HDC 30 nM, FITC-histidine 6 nM, histidine 600 μM, anti-histamine antibody 30 nM, DMSO 1%. The plate was incubated at 37° C. for 90 minutes. The fluorescence polarization signal was read on an LJL Analyst (Molecular Devices, Sunnyvale, Calif.) with excitation at 485 nm, emission at 530 nm, a fluorescein dichroic mirror at 505 nm and G factor set to 1. A 96-well plate version of the assay, used in assay development, was performed as described above with twice the volumes indicated for 384-well plates.
We first determined the affinity of the probe for the antibody and the specificity of the interaction, both of which are crucial to constructing a robust assay in a competitive mode. […] The probe concentration was held at 6 nM and the antibody concentration varied over approximately 3 logs. […] Probe and antibody concentrations were held constant at 6 and 50 nM, respectively, while the concentrations of histamine and histidine were varied as shown.

[2] = target: anti-histamine antibody D22.12; conditions: read-out: Kd (dissociation constant) of probe for antibody; FITC-histamine at 6 nM, antibody concentration varied over approximately 3 logs
Description: as §1
We first determined the affinity of the probe for the antibody and the specificity of the interaction, both of which are crucial to constructing a robust assay in a competitive mode. […] The probe concentration was held at 6 nM and the antibody concentration varied over approximately 3 logs. […]

human HDC = target: T1, human HDC (Homo sapiens, UniProt P19113); experiment: Histidine decarboxylase fluorescence polarization standard assay; format: biochemical; conditions: standard assay: 30 nM HDC, 600 μM histidine, 90 minutes at 37° C.; read-out: IC50 for inhibition of HDC
T1 construct: containing the first 1431 bases (amino acid residues 1-477) of HDC; made in house; host or cells: Sf9 insect cells (baculovirus, pDEST 20)
T1 sequence (P19113 1-477 S148Q): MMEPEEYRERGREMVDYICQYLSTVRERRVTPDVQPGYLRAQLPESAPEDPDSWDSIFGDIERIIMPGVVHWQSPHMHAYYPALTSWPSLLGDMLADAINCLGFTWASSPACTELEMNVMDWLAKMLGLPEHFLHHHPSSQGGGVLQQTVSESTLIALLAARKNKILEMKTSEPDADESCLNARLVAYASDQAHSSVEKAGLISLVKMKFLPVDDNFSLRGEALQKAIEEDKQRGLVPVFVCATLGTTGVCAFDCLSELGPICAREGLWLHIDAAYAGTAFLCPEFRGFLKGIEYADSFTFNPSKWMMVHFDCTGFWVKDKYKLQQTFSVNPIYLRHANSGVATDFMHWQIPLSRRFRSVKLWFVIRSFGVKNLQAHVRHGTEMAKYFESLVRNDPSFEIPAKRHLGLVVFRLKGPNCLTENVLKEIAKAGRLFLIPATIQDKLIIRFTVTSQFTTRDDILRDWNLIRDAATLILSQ
Description: as §1

HDC = target: T2, HDC (Mus musculus, UniProt P23738); conditions: Watabe et al 1992; read-out: Reported Km; cited from earlier work
T2 sequence (P23738 1-662): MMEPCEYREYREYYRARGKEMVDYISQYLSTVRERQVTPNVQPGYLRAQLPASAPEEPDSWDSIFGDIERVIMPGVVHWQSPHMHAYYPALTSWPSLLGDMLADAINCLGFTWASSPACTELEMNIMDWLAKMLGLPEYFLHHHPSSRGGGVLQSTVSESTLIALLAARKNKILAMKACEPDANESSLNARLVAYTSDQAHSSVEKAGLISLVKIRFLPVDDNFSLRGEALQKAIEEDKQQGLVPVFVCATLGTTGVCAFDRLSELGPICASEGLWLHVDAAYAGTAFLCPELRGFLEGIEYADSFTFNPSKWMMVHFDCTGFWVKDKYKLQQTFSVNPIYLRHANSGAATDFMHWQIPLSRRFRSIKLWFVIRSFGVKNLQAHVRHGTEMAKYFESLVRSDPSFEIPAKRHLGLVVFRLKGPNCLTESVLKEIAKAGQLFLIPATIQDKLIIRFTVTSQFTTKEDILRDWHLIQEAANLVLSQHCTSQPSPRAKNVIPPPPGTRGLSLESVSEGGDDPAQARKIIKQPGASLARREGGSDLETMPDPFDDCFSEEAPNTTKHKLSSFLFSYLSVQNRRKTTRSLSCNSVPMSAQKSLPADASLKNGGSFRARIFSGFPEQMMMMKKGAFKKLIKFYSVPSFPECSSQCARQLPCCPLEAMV

Q: Which IC50 ([1]; 6 nM FITC-histamine, 50 nM anti-histamine antibody, read-out: IC50 for competition with the probe for antibody binding) does the source give for `NCCc1c[nH]cn1` [Histamine, histamine] here?
A: 135 µM

Q: What about the “Selectivity for histamine over histidine” value ([1]; FP assay) of the same compound?
A: > 100 fold

Q: For “N-[3′,6′-dihydroxy-3-oxospiro[isobenzofuran-[(3H), 9′-[9H]xanthene-5(or 6)-yl]-N′-[2-(1H-imidazol-4-yl)ethyl]-2,4-dimethylthiourea, disodium salt [FITC-histamine]”, which Kd [2] is on record?
A: 0.0039 µM

Q: Which IC50 (human HDC) does the source give for `N[C@@](CF)(Cc1cnc[nH]1)C(=O)O` [α-fluoromethyl histidine] here?
A: 1.4 µM

Q: Which results are given for `N[C@@H](Cc1c[nH]cn1)C(=O)O` [Histidine, L-Histidine]?
A: Competition with FITC-histamine for binding to the antibody ([1]; 6 nM FITC-histamine, 50 nM antibody, over the 5 log range examined): unable to compete; Km (HDC): 200 to 400 µM

Q: Which IC50 (human HDC) does the source give for `COC(=O)C(N)Cc1c[nH]cn1` (stereo not shown) [methyl ester histidine] here?
A: 7.7 µM
